According to paper PMC7541926 (Preventive Nutrition and Food Science, 2020):

What was measured:
[1] = biological target: T1, Saccharomyces cerevisiae α-glucosidase (Saccharomyces cerevisiae, UniProt P53341); test: Enzyme kinetics of α-glucosidase inhibitory activity; details: Lineweaver-Burk double reciprocal plot
[2] = biological target: T1, Saccharomyces cerevisiae α-glucosidase; test: Enzyme assay for α-glucosidase inhibitory activity

T1 sequence (P53341 whole entry): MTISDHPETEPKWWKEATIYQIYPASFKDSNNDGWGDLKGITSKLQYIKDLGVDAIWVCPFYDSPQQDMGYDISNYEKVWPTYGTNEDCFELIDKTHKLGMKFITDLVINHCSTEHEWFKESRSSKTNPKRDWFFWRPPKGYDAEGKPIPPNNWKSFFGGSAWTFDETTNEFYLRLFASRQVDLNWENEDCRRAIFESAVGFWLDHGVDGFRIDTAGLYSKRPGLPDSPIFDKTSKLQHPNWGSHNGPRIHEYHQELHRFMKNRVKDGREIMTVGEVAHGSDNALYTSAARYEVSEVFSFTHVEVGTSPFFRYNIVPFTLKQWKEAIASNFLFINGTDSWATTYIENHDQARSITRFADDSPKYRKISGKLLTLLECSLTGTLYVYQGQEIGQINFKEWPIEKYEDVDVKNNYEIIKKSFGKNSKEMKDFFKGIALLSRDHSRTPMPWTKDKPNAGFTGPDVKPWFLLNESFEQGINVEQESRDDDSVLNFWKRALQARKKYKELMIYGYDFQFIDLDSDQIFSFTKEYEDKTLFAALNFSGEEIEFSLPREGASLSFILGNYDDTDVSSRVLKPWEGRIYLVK

Row | SMILES | Mode of inhibition [1] | IC50 [2] [µM]
1 | C[C@H]1O[C@H](O[C@H]2[C@H](O)[C@@H](O)[C@@H](O[C@H]3[C@H](O)[C@@H](O)C(O)O[C@@H]3CO)O[C@@H]2CO)[C@H](O)[C@@H](O)[C@@H]1N[C@H]1C=C(CO)[C@@H](O)[C@H](O)[C@H]1O (some centres unmarked) [Acarbose, acarbose, reference compound] | Competitive | –
2 | Oc1cc(O)c2cc(O)c(-c3ccc(O)c(O)c3)[o+]c2c1 [Cyanidin, cyanidin chloride] | Mixed type, close to non-competitive | 17 ± 1.35
3 | COc1cc(-c2[o+]c3cc(O)cc(O)c3cc2O)cc(OC)c1O [Malvidin, malvidin chloride] | Mixed type, close to non-competitive | 54.7 ± 2.14
4 | Oc1ccc(-c2[o+]c3cc(O)cc(O)c3cc2O)cc1 [Pelargonidin, pelargonidin chloride] | Mixed type, close to non-competitive | 50.3 ± 4

Other lines, results leading:

Row | Mode of inhibition [1] | IC50 [2] [µM] | SMILES
5 | Mixed type, close to non-competitive | 4.11 ± 0.49 | Oc1cc(O)c2cc(O)c(-c3cc(O)c(O)c(O)c3)[o+]c2c1 [Delphinidin, delphinidin chloride]
6 | Competitive | 30.8 ± 1.17 | COc1cc(-c2[o+]c3cc(O)cc(O)c3cc2O)cc(O)c1O [Petunidin, petunidin chloride]
